SMILES strings stand for the structures.

Assay [1] concerns the target T1, DCAF15 RBM39 ternary complex (Homo sapiens, UniProt Q14498+Q66K64, DEL276-383).
T1 construct: Amino acids 150 to 331 of RBM39 were cloned into pGEX4T3; GST (from the pGEX4T3 vector, own knowledge) followed by a TEV cleavage site (N); made in house; host or cells: Sf9 baculovirus (DDB1ΔB/DCAF15); E. coli (RBM39 R1R2)
As to the kind of experiment: DCAF15 RBM39 complex formation assay (FRET). Format: biochemical. The settings on record: FRET ratio, 20 nM DDB1DB/DCAF15, 50 nM RBM39 R1R2, overnight at 4° C.; read-out: DCAF15 RBM39 ternary complex EC50. The text has this:
(§1) Proteins used for the assays were as follows: Human DDA1 (UniProt:Q9BW61), DDB1 (UniPro: Q16531), and DCAF15 (UniProt: Q66K64) coding sequences were cloned into pFastBac1 vectors and were co-expressed in Sf9 cells using Bac-to-Bac baculovirus expression system (Thermo Fisher Scientific). The expression construct for DCAF15 includes a N-terminal His6-tag to facilitate the purification.
DCAF15 RBM39 Complex Formation Assay
LANCE Eu-W1024 Anti-6×His and SureLight Allophycocyanin-anti-FLAG antibodies were purchased from Perkin Elmer. Human DDB1DB and His-tagged DCAF15 were co-expressed in baculovirus/sf9 system. […] The His-tagged DCAF15 contains six histidine residues directly preceding the DCAF15 sequence without any linker. An RBM39 fragment containing RRM1 and RRM2 was expressed in E. coli.
A compound of the present disclosure in DMSO (2 μL) was transferred to a 384-well assay plate. Compound was added in 14 points, 3-fold serial dilution (1 μM to 0.6 pico molar) in DMSO. […] FRET assay buffer (25 mM HEPES, pH 7.5, 100 mM NaCl, […], 0.5 mM TCEP, 0.005% Tween-20, 0.2 nM Eu-W1024 Anti-6×His, 50 nM SureLight Allophycocyanin-anti-FLAG, 20 nM DDB1DB/DCAF15, 50 nM RBM39 R1R2) was added and the resulting solution was incubated overnight at 4° C. […] Low signal controls containing no compound and high signal controls containing 10 mM indisulam were measured for each plate.
EC50 values were calculated using Dotmatics template equation for 4-parameter fit.
Results are expressed as % formation using the following equation: […]

Assay [2] relates to HCT116 human colorectal carcinoma cells. Description: CellTiter-Glo assay (cell viability). Format: cell-based. The settings on record: HCT-116, 72 h, HCT116 cells, 3 days, CellTiter-Glo luminescence, read-out: CTG IC50. How it is done:
HCT116 human colorectal carcinoma cells were used in these experiments. HCT116 cells were obtained from ATCC. CellTiter-Glo® Luminescent Cell Viability Assay Reagent was obtained from Promega.
About 3,000 cells were seeded into 96-well plate with 100 μL of media (DMEM supplemented with 10% FBS, 100 units penicillin, and […] streptomycin per mL) the day before the experiment. For compound treatment, the master plate was prepared as follows: 100× compound stocks were prepared in a 96-well plate by 1 to 3 serial dilutions of 0.5 mM DMSO stocks. Each master plate contained serial dilution of 8 compounds, including the control compound E7820. […] of 100× compound stock was added to each well of the assay plate to give final concentrations of […]. Each concentration was tested in triplicate. After 3 days, cell viability was determined using CellTiter-Glo Luminescent Cell Viability Assay Reagent following the manufacturer's recommended protocol. Briefly, […] of CellTiter-Glo reagent was added to each well of the assay plate and the contents were mixed for 3 minutes at 600 rpm on a shaker (Thermomixer R). The plate was immediately placed in a plate reader (Synergy 2) and the luminescence signal (0.5 second per well integration time) was determined. IC50 values were calculated using Dotmatics software.
(Cellular ATP, detected with luciferase, serves as a proxy for viable cell number.)

The target in assay [3] is T2, DCAF15 (DDA1-DDB1ΔB-DCAF15Δpro) (Homo sapiens, UniProt Q66K64, DEL276-383).
T2 construct: made in house; host or cells: Sf9 (Bac-to-Bac baculovirus)
As to the kind of experiment: DCAF15 displacement assay (displacement FRET, probe PT7795). It counts as binding. The note with it: displacement of PT7795 (300 nM), compound 0.01 to 100 μM, 18 hours incubation; read-out: DCAF15 displacement IC50.
Excerpt: as §1
DCAF15 Displacement Assay (Displacement FRET KD)
Synthesis of the probe PT7795 is described in the article.
Binding of PT7795 to DDA1-DDB1AB-DCAF15Δpro was measured by the FRET signal between europium-labeled anti-His antibody (AD0205, Perkin Elmer) that is associated with His-tagged DCAF15 and ALX647 moiety in PT7795. […] After equilibrating for 2-3 hours at 4° C., the plate was removed from the incubator, briefly spun, then read on a Spark 10 (Tecan) at the excitation/emission wavelength of 340 nm/615 nm and 340 nm/665 nm.
Binding of compounds in this disclosure to DCAF15 was measured in a competition by the displacement of PT7795. The concentration of PT7795 was kept at 300 nM while the concentration of a compound was varied from 0.01 to 100 μM. The incubation time was increased to 18 hours for enhanced signal to noise level.
F=Fmin+(Fmax−Fmin)/(1+10^(logIC50−log[Compound])^n) (Equation 2)
The Kds can then be calculated from IC50s using Equation 3 (Cheng-Prusoff equation).

T1 sequence (Q66K64 with tags, fused parts or gaps DEL276-383): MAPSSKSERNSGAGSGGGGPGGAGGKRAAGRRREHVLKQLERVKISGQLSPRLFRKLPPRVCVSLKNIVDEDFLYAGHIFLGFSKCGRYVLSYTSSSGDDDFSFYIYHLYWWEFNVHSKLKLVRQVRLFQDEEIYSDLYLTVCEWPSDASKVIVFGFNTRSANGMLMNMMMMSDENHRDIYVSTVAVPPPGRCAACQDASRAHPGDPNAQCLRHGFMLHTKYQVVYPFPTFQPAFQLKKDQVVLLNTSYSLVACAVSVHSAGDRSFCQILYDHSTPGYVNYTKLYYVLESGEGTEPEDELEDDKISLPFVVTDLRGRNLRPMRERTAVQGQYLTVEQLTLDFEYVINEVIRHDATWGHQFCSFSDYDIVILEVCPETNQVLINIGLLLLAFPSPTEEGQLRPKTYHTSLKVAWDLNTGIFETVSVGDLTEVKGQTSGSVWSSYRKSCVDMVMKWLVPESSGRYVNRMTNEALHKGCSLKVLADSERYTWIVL
T1 sequence (Q14498 150-331, stated change not applied): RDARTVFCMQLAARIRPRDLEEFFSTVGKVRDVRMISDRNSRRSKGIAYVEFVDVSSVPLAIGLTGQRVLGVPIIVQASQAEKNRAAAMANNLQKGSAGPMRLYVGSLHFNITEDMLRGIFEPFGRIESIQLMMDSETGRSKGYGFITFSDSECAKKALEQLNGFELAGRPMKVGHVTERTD

A word on the EC50: it is the midpoint of the concentration-response curve. As a reminder, the IC50 is the midpoint of a concentration-inhibition curve. Turning to `O=S1(=O)Nc2c(cc(Cl)c3c(Cl)c[nH]c23)CN1Cc1cccc(Cl)c1` [Compound 11, 6,7-dichloro-3-(3-chlorobenzyl)-1,3,4,9-tetrahydro-[1,2,6] thiadiazino[4,3-g]indole 2,2-dioxide], the half-maximal effective concentration (EC50) in assay [1] was determined as 2.8 nM. The values for the IC50 in assay [2] and in assay [3] were 1400 nM and 9720 nM, respectively.
Taken in the same sequence, the figures for `O=S1(=O)Nc2c(cc(Cl)c3c(Cl)c[nH]c23)CN1Cc1ccc(Cl)nc1` [Compound 12, 6,7-dichloro-3-((6-chloropyridin-3-yl)methyl)-1,3,4,9-tetrahydro-[1,2,6]thiadiazino[4,3-g]indole 2,2-dioxide] were 0.7 nM, 125 nM and 1110 nM.
For `O=S1(=O)Nc2c(cc(Cl)c3c(Cl)c[nH]c23)CN1Cc1ccc(Cl)cc1` [Compound 13, 6,7-dichloro-3-(4-chlorobenzyl)-1,3,4,9-tetrahydro-[1,2,6] thiadiazino[4,3-g]indole 2,2-dioxide], in that order: 6.2 nM, 810 nM and 36100 nM.
Taken in the same sequence, the figures for `O=S1(=O)Nc2c(cc(Cl)c3c(Cl)c[nH]c23)CN1Cc1ccccc1Cl` [Compound 14, 6,7-dichloro-3-(2-chlorobenzyl)-1,3,4,9-tetrahydro-[1,2,6] thiadiazino[4,3-g] indole 2,2-dioxide] were 3.4 nM, 218 nM and 2320 nM.
As to `CN1Cc2cc(Cl)c3c(Cl)c[nH]c3c2NS1(=O)=O` [Compound 15, 6,7-dichloro-3-methyl-1,3,4,9-tetrahydro-[1,2,6]thiadiazino [4,3-g]indole 2,2-dioxide], the EC50 in assay [1] is 7.7 nM. Moreover, the values for the IC50 in assay [2] and in assay [3] were 726 nM and 14400 nM, respectively.
Taken in the same sequence, the figures for `O=S1(=O)Nc2c(cc(Cl)c3c(Cl)c[nH]c23)CC1Cc1ccccc1` (stereo not drawn) [Compound 16, 3-benzyl-6,7-dichloro-1,3,4,9-tetrahydro-[1,2] thiazino[4,3-g]indole 2,2-dioxide] were 1 nM, 259 nM and 1210 nM.
For `O=c1ccc(CN2Cc3cc(Cl)c4c(Cl)c[nH]c4c3NS2(=O)=O)c[nH]1` [Compound 17, 5-((6,7-dichloro-2,2-dioxido-4,9-dihydro-[1,2,6]thiadiazino[4,3-g]indol-3(1H)-yl)methyl)pyridin-2(1H)-one], in that order: 1.8 nM, 916 nM and 797 nM.
For the compound `O=S1(=O)Nc2c(cc(Cl)c3c(Cl)c[nH]c23)CN1CCCCF` [Compound 18, 6,7-dichloro-3-(4-fluorobutyl)-1,3,4,9-tetrahydro-[1,2,6]thiadiazino[4,3-g]indole 2,2-dioxide], the EC50 in assay [1] was 0.9 nM. Besides, the values for the IC50 in assay [2] and in assay [3] were 418 nM and 2680 nM, respectively.
Consider `O=S1(=O)Nc2c(cc(Cl)c3c(Cl)c[nH]c23)CN1Cc1ccccn1` [Compound 19, 6,7-dichloro-3-(pyridin-2-ylmethyl)-1,3,4,9-tetrahydro-[1,2,6]thiadiazino [4,3-g]indole 2,2-dioxide], for which, in assay [1], the EC50 was 1.6 nM. For the same compound, the IC50 in assay [2] was determined as 237 nM; in assay [3] it was 531 nM.
For `O=S1(=O)Nc2c(cc(Cl)c3c(Cl)c[nH]c23)CN1Cc1ccncc1` [Compound 20, 6,7-dichloro-3-(pyridin-4-ylmethyl)-1,3,4,9-tetrahydro-[1,2,6] thiadiazino[4,3-g] indole 2,2-dioxide], the EC50 in assay [1] was found to be 0.7 nM. Further, the values for the IC50 in assay [2] and in assay [3] were 155 nM and 1070 nM, respectively.
Taken in the same sequence, the figures for `COc1ccc(CN2Cc3cc(Cl)c4c(Cl)c[nH]c4c3NS2(=O)=O)cn1` [Compound 21, 6,7-dichloro-3-((6-methoxypyridin-3-yl)methyl)-1,3,4,9-tetrahydro-[1,2,6]thiadiazino [4,3-g]indole 2,2-dioxide] were 1.5 nM, 415 nM and 560 nM.
For `CC(c1ccccc1)N1Cc2cc(Cl)c3c(Cl)c[nH]c3c2NS1(=O)=O` (stereo not drawn) [Compound 23, 6,7-dichloro-3-(1-phenylethyl)-1,3,4,9-tetrahydro-[1,2,6] thiadiazino[4,3-g] indole 2,2-dioxide], in that order: 2.8 nM, 591 nM and 9590 nM.
Consider `O=S1(=O)Nc2c(cc(Cl)c3c(Cl)c[nH]c23)CN1CCO` [Compound 24, 6,7-dichloro-3-(2-hydroxyethyl)-1,3,4,9-tetrahydro-[1,2,6] thiadiazino[4,3-g]indole 2,2-dioxide], for which the EC50 in assay [1] was determined as 3.9 nM. Further, the IC50 in assay [2] turned out to be 799 nM; in assay [3], 8300 nM.
For `O=S1(=O)Nc2c(cc(Cl)c3c(Cl)c[nH]c23)CN1CCCC(F)(F)C(F)(F)F` [Compound 25, 6,7-dichloro-3-(4,4,5,5,5-pentafluoropentyl)-1,3,4,9-tetrahydro-[1,2,6] thiadiazino[4,3-g]indole 2,2-dioxide], the EC50 in assay [1] was 3.4 nM. The IC50 in assay [2] came out at 992 nM; in assay [3] it was 52200 nM.
Taken in the same sequence, the figures for `O=S1(=O)Nc2c(cc(Cl)c3c(Cl)c[nH]c23)CN1Cc1cccnc1` [Compound 26, 6,7-dichloro-3-(pyridin-3-ylmethyl)-1,3,4,9-tetrahydro-[1,2,6] thiadiazino[4,3-g] indole 2,2-dioxide] were 1.2 nM, 130 nM and 507 nM.
Taken in the same sequence, the figures for `O=S1(=O)Nc2c(cc(Cl)c3c(Cl)c[nH]c23)CN1Cc1cccnc1Cl` [Compound 27, 6,7-dichloro-3-((2-chloropyridin-3-yl)methyl)-1,3,4,9-tetrahydro-[1,2,6]thiadiazino [4,3-g]indole 2,2-dioxide] were 0.8 nM, 140 nM and 647 nM.
As for `CNCCN1Cc2cc(Cl)c3c(Cl)c[nH]c3c2NS1(=O)=O` [Compound 28, 6,7-dichloro-3-(2-(methylamino)ethyl)-1,3,4,9-tetrahydro-[1,2,6] thiadiazino[4,3-g]indole 2,2-dioxide], the EC50 in assay [1] stood at 1.4 nM. The IC50 in assay [2] was found to be 501 nM; in assay [3], 28000 nM.
Take `O=S1(=O)NCc2nc(Cl)c3c(Cl)c[nH]c3c2N1` [Compound 31, 6,7-dichloro-1,3,4,9-tetrahydropyrrolo[2′,3′:4,5]pyrido[3,2-c][1,2,6]thiadiazine 2,2-dioxide]: the concentration for a half-maximal effect (EC50) in assay [1] came out at 263 nM. Moreover, the IC50 in assay [2] was 4510 nM; in assay [3], no less than 100000 nM.

(Values after patent US20240294548A1, “TRICYCLIC SULTAMS AND SULFAMIDES AS ANTITUMOR AGENTS” (PELOTON THERAPEUTICS INC., priority 2021, published 2024).)
